Laboratory results reported in paper PMC4893161, “The Dynamic Localization of Cytoplasmic Dynein in Neurons Is Driven by Kinesin-1” (Neuron, 2016).

Assays:
[1] = target: T1, KLC2 TPR domain (KLC2^TPR) (Mus musculus, UniProt O88448); assay: Fluorescence polarization binding to KLC2 TPR domain; conditions: 150 mM NaCl, pH 7.5, 20 °C
T1 construct: amino acids V218 to K480) was amplified from a mouse; made in house; host or cells: E. coli (inferred from the pET28a vector
Description: (§1) Measurements were performed as previously described ([Pernigo et al., 2013]) with modifications as listed in Supplemental Experimental Procedures. […]
(§2) minutes with the addition of 15 µl of washed pre-equilibrated Protein-G Dynabeads. Beads were washed three times in IP buffer and then boiled in 50 µl 1X SDS-loading buffer. Samples were separated by SDS-PAGE and transferred to immobilon-PVDF membrane (Millipore) for western blotting. Primary antibodies listed above. HRP conjugated secondary antibodies were from Jackson. […]
(§3) Fluorescence polarization measurements […]
(§4) […] All fluorescence polarization (FP) measurements were carried out on a BMG Labtech PolarStar Omega plate reader at 20 °C by incubating 300 nM TAMRA-labeled peptides with His6-tagged KLC2TPR at increasing concentrations in 25 mM Hepes pH 7.5, 150 mM NaCl, 5 mM β-mercaptoethanol. […]
(§5) Four mouse brains were homogenized in 16 ml of ice cold Homogenization buffer (10 mM HEPES pH 7.4, 0.32 M sucrose, 2 mM EDTA plus protease inhibitors) then centrifuged at 1000 g for 15 min at 4 °C to form supernatant ‘S1’ and pellet ‘P1’. […] Samples of S1-P3 were taken at each stage and protein content measured by BCA assay and normalized to 1 mg/ml with 10 µg loaded on gels. […] Protein concentration and turbidity of fractions was analyzed at 280 and 340 nm respectively in a SynergyMx plate reader (BioTek). […]

[2] = test system: KLC1 TPR domain (KLC1^TPR); assay: Fluorescence polarization binding to KLC1 TPR domain; conditions: 150 mM NaCl, pH 7.5, 20 °C
Description: as §1, §2, §3, §4, §5

T1 sequence (O88448 217-478 limits assumed): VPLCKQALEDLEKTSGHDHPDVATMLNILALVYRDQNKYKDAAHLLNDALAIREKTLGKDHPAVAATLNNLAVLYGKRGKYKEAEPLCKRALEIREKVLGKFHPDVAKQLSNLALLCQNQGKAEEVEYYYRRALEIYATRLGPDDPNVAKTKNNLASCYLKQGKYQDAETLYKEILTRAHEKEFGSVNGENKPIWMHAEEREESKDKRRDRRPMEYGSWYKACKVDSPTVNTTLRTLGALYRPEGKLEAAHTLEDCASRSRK

In the case of “TAMRA-TRTLQWDTDPS [WD2^pept, peptide centered on the second tryptophan motif of DIC1]”, the “interaction with KLC2 TPR” value [1] is reported as “did not show an interaction” and the “interaction with KLC1 TPR” value [2] is reported as “did not show an interaction”.
